For 28 molecules, IC50 and IC90 results are on record in ChEMBL document CHEMBL4483862, “Open-source discovery of chemical leads for next-generation chemoprotective antimalarials” (2018).

For the test, the system named is Plasmodium berghei. Nature of the test: Luciferase/luciferin-expressing antifolate-resistant parasites were used to infect a culture of HepG2 cells that were pre-incubated with compounds. Infected hepatocytes emit light due to the luciferase reaction. Assay results are presented as the percent inhibition of light emission compared to control. […]. It is filed as functional. The following applies: sporozoite; for IC90: read-out: LUCIFERASE INFECTION ASSAY - IC90.

One may read the IC50 as the point on the concentration scale where inhibition reaches its midpoint. The term IC90 denotes the concentration at which the effect reaches the 90% level.

Consider `O=C1NC(c2ccccc2)=C(c2nc3ccccc3s2)C(c2ccc(O)cc2)N1` (stereo unspecified), for which the IC90 was > 10 µM. For the same molecule, where the note is “FFLUC_HILL_SLOPE 17.5, FFLUC_R_SQUARED 0.699, PBLUC_HILL_SLOPE 3.26, 2.75, PBLUC_R_SQUARED 0.346, 0.719, read-out: LUCIFERASE INFECTION ASSAY - IC50”, the IC50 amounted to 5.94 µM.

For the molecule `CN(CC(=O)Nc1c(Cl)cccc1Cl)C(=O)c1ccccc1-c1nc2ccccc2s1`, the IC90 was found to be 6.97 µM. Also, the IC50 (FFLUC_HILL_SLOPE 17.7, FFLUC_R_SQUARED 0.2, PBLUC_HILL_SLOPE 167, PBLUC_R_SQUARED 0.153, read-out: LUCIFERASE INFECTION ASSAY - IC50) was 6.87 µM.

With `Cc1cc(C)c(C)c(S(=O)(=O)N2CCN(CC(=O)c3c(N)n(Cc4ccccc4)c(=O)n(C)c3=O)CC2)c1C`, the IC90 was > 10 µM. In addition, the IC50 (FFLUC_HILL_SLOPE 17, FFLUC_R_SQUARED 0.51, read-out: LUCIFERASE INFECTION ASSAY - IC50) is > 10 µM.

In the case of `CCn1nc(C)c(Br)c1C(=O)Sc1ccccc1Cl`, the IC90 is > 9.17 µM. In addition, the IC50 (FFLUC_HILL_SLOPE 17.2, FFLUC_R_SQUARED 0.444, read-out: LUCIFERASE INFECTION ASSAY - IC50) is > 9.17 µM.

`Cc1ccnc(NC(c2ccccn2)c2ccc3cccnc3c2O)c1` (stereo unspecified): the IC90 is > 9.64 µM. In addition, where the note is “FFLUC_HILL_SLOPE 17.7, FFLUC_R_SQUARED 0.0708, HEPG2TOX_HILL_SLOPE 10.6, HEPG2TOX_R_SQUARED 0.571, PBLUC_HILL_SLOPE 38.3, PBLUC_R_SQUARED 0.424, read-out: LUCIFERASE INFECTION ASSAY - IC50”, the IC50 came to 9.27 µM.

For `CC(NC(=O)C12CC3CC(CC(C3)C1)C2)C(=O)N/N=C/C1=C(N2CCOCC2)C(=C\c2ccccc2)/CC1` (stereo unspecified), the IC90 is > 10 µM. Besides, the IC50 (FFLUC_HILL_SLOPE 17.7, FFLUC_R_SQUARED 0.505, PBLUC_HILL_SLOPE 17.3, PBLUC_R_SQUARED 0.294, read-out: LUCIFERASE INFECTION ASSAY - IC50) is 9.09 µM.

Take `CC(Cc1cccs1)N(Cc1ccc(Cl)cc1)C(=O)c1ccc(Cl)c(S(=O)(=O)N2CCCCC2)c1` (stereo unspecified): the IC90 was > 10 µM. Moreover, the IC50 (FFLUC_HILL_SLOPE 17, FFLUC_R_SQUARED 0.198, read-out: LUCIFERASE INFECTION ASSAY - IC50) is > 10 µM.

For the molecule `CC(=O)c1ccc(NC(=O)c2nn(-c3ccccc3)c3c2C2CCC3(C)C2(C)C)cc1` (stereo unspecified), the IC90 was > 10 µM. The IC50 (FFLUC_HILL_SLOPE 16.9, FFLUC_R_SQUARED 0.354, read-out: LUCIFERASE INFECTION ASSAY - IC50) is > 10 µM.

Consider `COc1ccc(C(=O)Nc2nc3ccc(C)cn3c2C(=O)NC2CCCCC2)cc1`, for which the IC90 was 3.1 µM. Also, the IC50 (FFLUC_HILL_SLOPE 17.6, FFLUC_R_SQUARED 0.155, HEPG2TOX_HILL_SLOPE 2.69, HEPG2TOX_R_SQUARED 0.972, PBLUC_HILL_SLOPE 14.3, PBLUC_R_SQUARED 0.423, read-out: LUCIFERASE INFECTION ASSAY - IC50) was found to be 2.66 µM.

As for `CCOc1ccc(-n2c(Sc3ccc4nnnn4n3)nnc2-c2ccc(C(C)(C)C)cc2)cc1`, the IC90 is 9.4 µM. Further, the IC50 (FFLUC_HILL_SLOPE 16.9, FFLUC_R_SQUARED 0.24, PBLUC_HILL_SLOPE 5, PBLUC_R_SQUARED 0.626, read-out: LUCIFERASE INFECTION ASSAY - IC50) stood at 6.06 µM.

With `C/C(=N\NC(N)=S)c1ccc(OCc2ncc(C(F)(F)F)cc2Cl)cc1`, the IC90 was found to be 4.57 µM. Besides, the IC50 (FFLUC_HILL_SLOPE 17.3, FFLUC_R_SQUARED 0.0449, HEPG2TOX_HILL_SLOPE 9.24, HEPG2TOX_R_SQUARED 0.314, PBLUC_HILL_SLOPE 1.92, PBLUC_R_SQUARED 0.719, read-out: LUCIFERASE INFECTION ASSAY - IC50) was determined as 1.46 µM.

Consider `CCCCNC(=O)c1c(NC(=O)c2ccccc2F)nc2ccc(C)cn12`, for which the IC90 came to 3.54 µM. The IC50 (FFLUC_HILL_SLOPE 17.2, FFLUC_R_SQUARED 0.157, HEPG2TOX_HILL_SLOPE 8.23, HEPG2TOX_R_SQUARED 0.602, PBLUC_HILL_SLOPE 11.7, PBLUC_R_SQUARED 0.726, read-out: LUCIFERASE INFECTION ASSAY - IC50) stood at 2.94 µM.

`C=CCOc1cccc(/C=C2/C(=O)Nc3cc(Cl)ccc32)c1`: the IC90 is > 10 µM. Besides, for the setting “FFLUC_HILL_SLOPE 17.6, FFLUC_R_SQUARED 0.397, HEPG2TOX_HILL_SLOPE 7.7, HEPG2TOX_R_SQUARED 0.755, PBLUC_HILL_SLOPE 12.7, PBLUC_R_SQUARED 0.0397, read-out: LUCIFERASE INFECTION ASSAY - IC50”, the IC50 was found to be 9.6 µM.

Regarding `O=[N+]([O-])c1ccccc1Sc1sc2ncnc(N/N=C/c3ccc(Cl)cc3Cl)c2c1-c1ccccc1`, the IC90 was > 10 µM. Further, for the setting “FFLUC_HILL_SLOPE 17, FFLUC_R_SQUARED 0.5, read-out: LUCIFERASE INFECTION ASSAY - IC50”, the IC50 was > 10 µM.

With `O=c1c(-c2ccc(Cl)cc2)c[nH]n1-c1cccc(C(F)(F)F)c1`, the IC90 was > 9.74 µM. For the same molecule, where the note is “FFLUC_HILL_SLOPE 17.4, FFLUC_R_SQUARED 0.432, HEPG2TOX_HILL_SLOPE 8.27, HEPG2TOX_R_SQUARED 0.828, PBLUC_HILL_SLOPE 3.62, PBLUC_R_SQUARED 0.841, read-out: LUCIFERASE INFECTION ASSAY - IC50”, the IC50 was found to be 5.59 µM.

In the case of `O=C(NC1=C(Nc2ccc3c(c2)OCCO3)C(=O)c2ccccc2C1=O)c1ccc(Cl)cc1`, the IC90 was > 10 µM. Moreover, the IC50 (FFLUC_HILL_SLOPE 16.8, FFLUC_R_SQUARED 0.568, PBLUC_HILL_SLOPE 3.91, PBLUC_R_SQUARED 0.215, read-out: LUCIFERASE INFECTION ASSAY - IC50) was determined as 6.65 µM.

Regarding `CCOC(=O)c1c(-c2ccc(Cl)cc2)csc1NC(=O)CSc1nc2c(c(CC)c1C#N)C(=O)CC(C)(C)C2`, the IC90 was > 10 µM. Further, the IC50 (FFLUC_HILL_SLOPE 17.7, FFLUC_R_SQUARED 0.746, PBLUC_HILL_SLOPE 12.9, PBLUC_R_SQUARED 0.506, read-out: LUCIFERASE INFECTION ASSAY - IC50) is 9.02 µM.

On to `O=C(C(/C=N/O)=N/Nc1ccc(C(F)(F)F)cc1)c1ccc(Br)cc1`, for which the IC90 turned out to be 3.98 µM. For the same molecule, the IC50 (FFLUC_HILL_SLOPE 17.5, FFLUC_R_SQUARED 0.273, HEPG2TOX_HILL_SLOPE 2.17, HEPG2TOX_R_SQUARED 0.985, PBLUC_HILL_SLOPE 7.45, PBLUC_R_SQUARED 0.303, read-out: LUCIFERASE INFECTION ASSAY - IC50) was 2.96 µM.

`CCCCCn1c(SCC(=O)Nc2sccc2C(N)=O)nc2sc3c(c2c1=O)CCC3`: the IC90 was > 10 µM. The IC50 (FFLUC_HILL_SLOPE 17.7, FFLUC_R_SQUARED 0.0867, read-out: LUCIFERASE INFECTION ASSAY - IC50) was > 10 µM.

In the case of `OCc1ccc(-c2cnc3ccc(-c4cccc(F)c4)nn23)cc1`, the IC90 was determined as 8.2 µM. The IC50 (FFLUC_HILL_SLOPE 16.8, FFLUC_R_SQUARED 0.417, HEPG2TOX_HILL_SLOPE 9.34, HEPG2TOX_R_SQUARED 0.811, PBLUC_HILL_SLOPE 2.28, PBLUC_R_SQUARED 0.536, read-out: LUCIFERASE INFECTION ASSAY - IC50) stood at 3.13 µM.

For `Cc1nn(-c2ccccc2)c2nc(-c3ccccc3)c(-c3nc4ccccc4[nH]3)c(-c3ccncc3)c12`, the IC90 is > 10 µM. Moreover, the IC50 (FFLUC_HILL_SLOPE 17.6, FFLUC_R_SQUARED 0.574, PBLUC_HILL_SLOPE 2.67, PBLUC_R_SQUARED 0.448, read-out: LUCIFERASE INFECTION ASSAY - IC50) was 7.61 µM.

Take `CCN(CC)c1ccc(/C=N/Nc2ccc(C)cc2C)c(O)c1`: the concentration for an effect of 90% (IC90) is > 10 µM. In addition, the IC50 (FFLUC_HILL_SLOPE 17.2, FFLUC_R_SQUARED 0.349, PBLUC_HILL_SLOPE 3.28, PBLUC_R_SQUARED 0.115, read-out: LUCIFERASE INFECTION ASSAY - IC50) is 5.38 µM.

For the molecule `Cc1cc(/C=C2\SC(NC3CCCCC3)=NC2=O)c(C)n1-c1ccc(Cl)c(C(F)(F)F)c1`, the IC90 came out at 9.71 µM. The IC50 (FFLUC_HILL_SLOPE 17.5, FFLUC_R_SQUARED 0.757, PBLUC_HILL_SLOPE 2.43, PBLUC_R_SQUARED 0.441, read-out: LUCIFERASE INFECTION ASSAY - IC50) is 3.93 µM.

`O=C(OCc1cc(=O)oc2ccc3ccccc3c12)c1ccccc1-c1ccc(C(F)(F)F)cc1`: the IC90 was > 10 µM. Besides, under “FFLUC_HILL_SLOPE 17.5, FFLUC_R_SQUARED 0.62, read-out: LUCIFERASE INFECTION ASSAY - IC50”, the half-maximal inhibitory concentration (IC50) is > 10 µM.

Consider `CCCCCCCCCONC(=O)Nc1ccc([N+](=O)[O-])cc1`, for which the IC90 is > 10 µM. The IC50 (FFLUC_HILL_SLOPE 17.3, FFLUC_R_SQUARED 0.0693, PBLUC_HILL_SLOPE 3, PBLUC_R_SQUARED 0.451, read-out: LUCIFERASE INFECTION ASSAY - IC50) was determined as 6.31 µM.

Regarding `CC(C)n1c(SCC(=O)N(Cc2ccco2)C2=CCCCC2)nc2ccccc2c1=O`, the IC90 stood at 9.27 µM. For the setting “FFLUC_HILL_SLOPE 16.9, FFLUC_R_SQUARED 0.338, PBLUC_HILL_SLOPE 11.7, PBLUC_R_SQUARED 0.501, read-out: LUCIFERASE INFECTION ASSAY - IC50”, the IC50 turned out to be 7.68 µM.

On to `O=C(OCC(=O)C12CC3CC(CC(C3)C1)C2)c1ccc(Oc2ccc(Cl)cc2[N+](=O)[O-])cc1`, for which the IC90 is > 10 µM. The IC50 (FFLUC_HILL_SLOPE 17.5, FFLUC_R_SQUARED 0.352, PBLUC_HILL_SLOPE 8.52, PBLUC_R_SQUARED 0.214, read-out: LUCIFERASE INFECTION ASSAY - IC50) was 9.42 µM.

For the molecule `O=C1c2ccccc2SC1(c1nc2ccccc2s1)c1nc2ccccc2s1`, the IC90 was determined as 9.86 µM. Besides, the IC50 (FFLUC_HILL_SLOPE 17.4, FFLUC_R_SQUARED 0.735, PBLUC_HILL_SLOPE 16.6, PBLUC_R_SQUARED 0.262, read-out: LUCIFERASE INFECTION ASSAY - IC50) came out at 8.63 µM.
